Laboratory results reported in US20010010922A1, “CLONING AND USES OF THE GENETIC LOCUS BCL-6” (priority 1994, published 2001).
Entries after “also recorded” stand apart in the source; their conditions may differ. Peptide text beside a SMILES is read from it. * marks the point of attachment. Cbz = O=C(OCc1ccccc1)*

Key:
BCL-6 [1] = assay: Anti-IgM treatment of Ramos cells, Western blot of BCL-6; format: cell-based, human; settings: inhibitor 50 μM added 30 min (PD098059) or 1 hr (MG132) before anti-IgM
Method: FIGS. 23A-23E. BCL-6 is phosphorylated and degraded by antigen receptor signaling in B cells. Ramos cells ([…]) were treated with anti-IgM ([…]) and harvested at different time points after treatment as indicated. (FIG. 23A) (Top three panels) Equal amounts of cell extracts were used for Western blot analysis using anti-BCL-6 (top), or anti-ERK2 (middle) antibodies, and for solid phase ERK2 kinase assays (MBP, bottom); Equal amounts of RNAs (10 μg) were used for Northern blot analysis with BCL-6 or GAPDH probes (bottom). (FIG. 23B) Hyperphosphorylated BCL-6 proteins are more unstable. […] Cell extracts were immunoprecipitated with anti-BCL-6 antibodies and analyzed by SDS-PAGE followed by autoradiography. […] Equal amounts of cell extracts were loaded on 7% (HA-BCL-6 or HA-BCL-6Ala333,343) or 10% SDS-PAGE (HA-BCL-6ZF) and the amount of exogenous BCL-6 proteins were analyzed by Western blot using anti-HA antibodies (12CA5).
(§1) Total RNA were isolated from cells by using Trizol-reagents (GIBCO-BRL) and equal amounts of RNA were separated on 1% formaldehyde-agarose gel. […] For Ramos cells and their stable transfectants (untreated or treated), equal amounts of protein were analyzed by 8% or 10% SDS-PAGE, and subsequently by Western blot analysis using anti-BCL-6 (N-70-6), anti-ERK2 (C-14) or anti-HA (12CA5) antibodies at 1:3000, 1:1000 or 1:500 dilutions. […]

BCL-6 [2] = assay: MEK-2E mediated degradation of BCL-6 in transfected 293T cells, Western blot; format: cell-based; settings: 293T cells transfected with BCL-6 and MEK-2E; inhibitor 50 μM added 8 hrs after transfection
Method: (§2) FIGS. 22A-22B MAPK-induced BCL-6 degradation is mediated by the ubiquitin/proteasome pathway. (FIG. 22A) Western blot analysis of BCL-6 proteins in 293T cells transfected with BCL-6 in the absence or presence of co-transfected MEK-2E treated with 0.2% DMSO (lanes 1-3), 50 μM Calpain inhibitor II (lanes 4-6), or 50 μM MG132 (lanes 7-9) (added 8hrs after transfection). (FIG. 22B) 293T cells were transfected with BCL-6, His-Ub, and MEK-2E in the absence (lanes 1-4) or presence of MG132 (lanes 5-8). Cell lysates were immunoprecipitated with anti-BCL-6 antibodies (N-70-6) and the immunoprecipitants were analyzed by 6% SDS-PAGE followed by Western blot analysis using anti-ubiquitin antibodies.
293T cells, grow in DMEM, 10% FBS, were transfected transiently with various DNA vectors using standard calcium phosphate precipitation methods. […]
as §1

[3] = system: BCL-6/ubiquitin conjugates; assay: In vivo ubiquitination assay in transfected 293T cells (anti-BCL-6 immunoprecipitation, anti-ubiquitin Western blot); format: cell-based
Method: as §2, with “antibodies. […]” for “antibodies.”
Therefore, we tested whether MEK-2E mediated degradation of BCL-6 in transfected 293T cells could be inhibited by the proteasome inhibitor Cbz-LLL (MG132) (Kim and Maniatis, 1996; Palombella et al., 1994; Rock et al., 1994). […] Because the addition of multiple ubiquitins to the proteolysis substrate is a key step preceding target degradation by the proteasome, we then tested whether BCL-6/ubiquitin conjugates in vivo could be detected. […] Cell lysates were subjected to immunoprecipitation with anti-BCL-6 antibodies, and the immunoprecipitates were analyzed by Western blotting using anti-ubiquitin antibodies. […]

| Structure (SMILES) | inhibition of anti-IgM-induced BCL-6 degradation (BCL-6 [1]) | inhibition of MEK-2E mediated BCL-6 degradation (BCL-6 [2]) | multi-ubiquitinated forms of BCL-6 (BCL-6/ubiquitin conjugates) ([3]; 293T cells transfected with BCL-6, His-Ub and MEK-2E, MG132 50 μM (lane 8)) | multi-ubiquitinated forms of BCL-6 (BCL-6/ubiquitin conjugates) ([3]; 293T cells transfected with BCL-6 and His-Ub, no MEK-2E, MG132 50 μM (lane 7)) |
| --- | --- | --- | --- | --- |
| CC(C)C[C@@H](C=O)NC(=O)[C@H](CC(C)C)NC(=O)[C@H](CC(C)C)NC(=O)OCc1ccccc1 [MG132, N-CBZ-Leu-Leu-Leu-AL] (Cbz-Leu-Leu-Leu-aldehyde) | specifically inhibited; also recorded: prevented | prevented; also recorded: completely inhibited | detectable at high levels | low levels were detectable |
| COc1cccc(-c2cc(=O)c3ccccc3o2)c1N [PD098059] | inhibited; also recorded: prevented |  |  |  |
| CSCC[C@@H](C=O)NC(=O)[C@H](CC(C)C)NC(=O)[C@H](CC(C)C)NC(C)=O [calpain inhibitor II] (Ac-Leu-Leu-Met-aldehyde) |  | not |  |  |
